Test results as given in article PMC10256801, “A multicentric consortium study demonstrates that dimethylarginine dimethylaminohydrolase 2 is not a dimethylarginine dimethylaminohydrolase” (Nature Communications, 2023).

Target: T1, Dimethylarginine dimethylaminohydrolase 1 (DDAH1) (Homo sapiens, UniProt O94760)
T1 construct: N-terminal fusion protein with glutathione S-transferase (DDAH1-GST)
Assay: MicroScale Thermophoresis (MST) with purified recombinant protein; hydrolysis to L-citrulline also measured
Conditions: read-out: Binding status Kd (μM) ± confidence values

T1 sequence (O94760 whole entry, the tested form may be a part): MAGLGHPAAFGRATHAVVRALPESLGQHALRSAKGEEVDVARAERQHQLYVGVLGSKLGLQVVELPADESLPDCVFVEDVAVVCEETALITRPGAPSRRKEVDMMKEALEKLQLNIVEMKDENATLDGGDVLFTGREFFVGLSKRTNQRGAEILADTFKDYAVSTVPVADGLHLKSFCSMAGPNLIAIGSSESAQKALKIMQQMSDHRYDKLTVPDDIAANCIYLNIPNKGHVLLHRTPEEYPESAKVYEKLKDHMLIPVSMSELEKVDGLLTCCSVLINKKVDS

Kd: 4.27 ± 0.46 µM
SMILES: CN(C)C(=N)NCCC[C@H](N)C(=O)O [ADMA]
